Measurements as given in ChEMBL document CHEMBL1201862, “PubChem BioAssay data set” (2004).
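Five concentrations, 48 hours, 96-well plates. At the GI50, growth is halved.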 Active and inactive are the calls of the source. Cut-off read from the data, not from the text of the source: active = GI50 up to about 1.1 µM and inactive = higher.

Legend:
Assay in all cases: inhibition of tumour cell growth, NCI panel, 48 h
SR = test system: SR
HCT-116 = test system: HCT-116
NCI-H522 = test system: NCI-H522
SF-268 = test system: SF-268
CCRF-CEM = test system: CCRF-CEM
MCF7 = test system: MCF7
786-0 = test system: 786-0
A549 = test system: A549
A498 = test system: A498
NCI-H23 = test system: NCI-H23
CAKI-1 = test system: CAKI-1
HCT-15 = test system: HCT-15
OVCAR-4 = test system: OVCAR-4
DU-145 = test system: DU-145
T47D = test system: T47D
SN12C = test system: SN12C
HOP-62 = test system: HOP-62
IGROV-1 = test system: IGROV-1
SK-MEL-2 = test system: SK-MEL-2
OVCAR-8 = test system: OVCAR-8
SF-539 = test system: SF-539
SNB-75 = test system: SNB-75
RXF 393 = test system: RXF 393
OVCAR-3 = test system: OVCAR-3
U-251 = test system: U-251
UACC-62 = test system: UACC-62
NCI-H460 = test system: NCI-H460
HOP-92 = test system: HOP-92
MDA-MB-231 = test system: MDA-MB-231
MOLT-4 = test system: MOLT-4
TK-10 = test system: TK-10
COLO 205 = test system: COLO 205
HT-29 = test system: HT-29
NCI-H226 = test system: NCI-H226
LOX IMVI = test system: LOX IMVI
MDA-N = test system: MDA-N
ACHN = test system: ACHN
RPMI-8226 = test system: RPMI-8226
Malme-3M = test system: Malme-3M
UO-31 = test system: UO-31
SK-MEL-5 = test system: SK-MEL-5
BT-549 = test system: BT-549
SW-620 = test system: SW-620
OVCAR-5 = test system: OVCAR-5
KM12 = test system: KM12
SF-295 = test system: SF-295
UACC-257 = test system: UACC-257
EKVX = test system: EKVX
HL-60 = test system: HL-60
SK-OV-3 = test system: SK-OV-3
SNB-19 = test system: SNB-19
SK-MEL-28 = test system: SK-MEL-28
MDA-MB-435 = test system: MDA-MB-435
PC-3 = test system: PC-3
NCI/ADR-RES = test system: NCI/ADR-RES
Hs-578T = test system: Hs-578T
K562 = test system: K562
HCC 2998 = test system: HCC 2998
M14 = test system: M14

Cc1ccc(/C=C2\CCCC(CN3CCCCC3)C2=O)cc1 (centres undefined)
GI50 (SR): 0.767 µM (active) | GI50 (HCT-116): 1.76 µM (inactive) | GI50 (NCI-H522): 1.79 µM (inactive) | GI50 (SF-268): 2.09 µM (inactive) | GI50 (CCRF-CEM): 0.757 µM (active) | GI50 (MCF7): 0.721 µM (active) | GI50 (786-0): 2.02 µM (inactive) | GI50 (A549): 17.7 µM (inactive) | GI50 (A498): 13.4 µM (inactive) | GI50 (NCI-H23): 2.17 µM (inactive) | GI50 (CAKI-1): 1.79 µM (inactive) | GI50 (HCT-15): 2.14 µM | GI50 (OVCAR-4): 1.79 µM (inactive) | GI50 (DU-145): 11.7 µM (inactive) | GI50 (T47D): 1.82 µM (inactive) | GI50 (SN12C): 2.96 µM (inactive) | GI50 (HOP-62): 20.3 µM (inactive) | GI50 (IGROV-1): 1.96 µM (inactive) | GI50 (SK-MEL-2): 2.89 µM (inactive) | GI50 (OVCAR-8): 2.64 µM (inactive) | GI50 (SF-539): 4.42 µM (inactive) | GI50 (SNB-75): 4.66 µM (inactive) | GI50 (RXF 393): 1.56 µM (inactive) | GI50 (OVCAR-3): 1.87 µM (inactive) | GI50 (U-251): 14.3 µM (inactive) | GI50 (UACC-62): 4.73 µM (inactive) | GI50 (NCI-H460): 3.89 µM (inactive) | GI50 (HOP-92): 1.81 µM (inactive) | GI50 (MDA-MB-231): 1.85 µM (inactive) | GI50 (MOLT-4): 4 µM (inactive) | GI50 (TK-10): 3.22 µM (inactive) | GI50 (COLO 205): 1.82 µM (inactive) | GI50 (HT-29): 1.77 µM (inactive) | GI50 (NCI-H226): 2.29 µM (inactive) | GI50 (LOX IMVI): 1.84 µM (inactive) | GI50 (MDA-N): 2.77 µM (inactive) | GI50 (ACHN): 3.98 µM (inactive) | GI50 (RPMI-8226): > 100 µM (inactive) | GI50 (Malme-3M): 2.51 µM (inactive) | GI50 (UO-31): 1.84 µM (inactive) | GI50 (SK-MEL-5): 4.66 µM (inactive) | GI50 (BT-549): 2.29 µM (inactive) | GI50 (SW-620): 1.75 µM (inactive) | GI50 (OVCAR-5): 15 µM (inactive) | GI50 (KM12): 1.27 µM (inactive) | GI50 (SF-295): 17.2 µM (inactive) | GI50 (UACC-257): 1.93 µM (inactive) | GI50 (EKVX): 17.6 µM (inactive) | GI50 (HL-60): 0.555 µM (active) | GI50 (SK-OV-3): 16.5 µM (inactive) | GI50 (SNB-19): 15.2 µM (inactive) | GI50 (SK-MEL-28): 1.63 µM (inactive) | GI50 (MDA-MB-435): 1.82 µM (inactive) | GI50 (PC-3): 2.79 µM (inactive) | GI50 (NCI/ADR-RES): 5.38 µM (inactive) | GI50 (Hs-578T): 2.13 µM (inactive) | GI50 (K562): 1.57 µM (inactive) | GI50 (HCC 2998): 15.3 µM (inactive)

CCNc1ncnc2sc(SCc3ccccc3)nc12
GI50 (SR): 33.8 µM (inactive) | GI50 (HCT-116): 85.9 µM (inactive) | GI50 (NCI-H522): 62.2 µM (inactive) | GI50 (SF-268): > 100 µM (inactive) | GI50 (CCRF-CEM): 33.9 µM (inactive) | GI50 (MCF7): 79.6 µM (inactive) | GI50 (786-0): > 100 µM (inactive) | GI50 (A549): 36.5 µM (inactive) | GI50 (A498): 61.9 µM (inactive) | GI50 (NCI-H23): 83.8 µM (inactive) | GI50 (CAKI-1): 71.6 µM (inactive) | GI50 (HCT-15): > 100 µM | GI50 (OVCAR-4): > 100 µM (inactive) | GI50 (DU-145): 75.7 µM (inactive) | GI50 (T47D): 75.5 µM (inactive) | GI50 (SN12C): > 100 µM (inactive) | GI50 (HOP-62): > 100 µM (inactive) | GI50 (IGROV-1): > 100 µM (inactive) | GI50 (SK-MEL-2): > 100 µM (inactive) | GI50 (OVCAR-8): 80.9 µM (inactive) | GI50 (SF-539): > 100 µM (inactive) | GI50 (SNB-75): > 100 µM (inactive) | GI50 (RXF 393): > 100 µM (inactive) | GI50 (OVCAR-3): > 100 µM (inactive) | GI50 (U-251): > 100 µM (inactive) | GI50 (NCI-H460): 46.2 µM (inactive) | GI50 (HOP-92): 19.6 µM (inactive) | GI50 (MDA-MB-231): > 100 µM (inactive) | GI50 (MOLT-4): 25.9 µM (inactive) | GI50 (TK-10): 60.7 µM (inactive) | GI50 (COLO 205): 36.1 µM (inactive) | GI50 (HT-29): 58.1 µM (inactive) | GI50 (NCI-H226): > 100 µM (inactive) | GI50 (LOX IMVI): 95.9 µM (inactive) | GI50 (MDA-N): > 100 µM (inactive) | GI50 (ACHN): 70.6 µM (inactive) | GI50 (RPMI-8226): 43.3 µM (inactive) | GI50 (Malme-3M): > 100 µM (inactive) | GI50 (UO-31): 36.8 µM (inactive) | GI50 (SK-MEL-5): 25.6 µM (inactive) | GI50 (BT-549): > 100 µM (inactive) | GI50 (SW-620): > 100 µM (inactive) | GI50 (OVCAR-5): > 100 µM (inactive) | GI50 (M14): > 100 µM (inactive) | GI50 (KM12): 48.4 µM (inactive) | GI50 (SF-295): 89.5 µM (inactive) | GI50 (UACC-257): 79.1 µM (inactive) | GI50 (EKVX): 42 µM (inactive) | GI50 (HL-60): 16.6 µM (inactive) | GI50 (SK-OV-3): > 100 µM (inactive) | GI50 (SNB-19): > 100 µM (inactive) | GI50 (SK-MEL-28): > 100 µM (inactive) | GI50 (MDA-MB-435): > 100 µM (inactive) | GI50 (PC-3): 38.5 µM (inactive) | GI50 (NCI/ADR-RES): 34.8 µM (inactive) | GI50 (Hs-578T): > 100 µM (inactive) | GI50 (K562): 81.7 µM (inactive) | GI50 (HCC 2998): 81.1 µM (inactive)

C/C=C(\C)C(=O)OC1/C=C(\C)CC/C=C(\C)CC2OC(=O)C(C)(OC(C)=O)C12 (centres undefined)
GI50 (SR): > 100 µM (inactive) | GI50 (HCT-116): > 100 µM (inactive) | GI50 (NCI-H522): > 100 µM (inactive) | GI50 (SF-268): > 100 µM (inactive) | GI50 (CCRF-CEM): > 100 µM (inactive) | GI50 (MCF7): > 100 µM (inactive) | GI50 (786-0): > 100 µM (inactive) | GI50 (A549): > 100 µM (inactive) | GI50 (A498): > 100 µM (inactive) | GI50 (NCI-H23): > 100 µM (inactive) | GI50 (CAKI-1): > 100 µM (inactive) | GI50 (HCT-15): > 100 µM | GI50 (OVCAR-4): > 100 µM (inactive) | GI50 (DU-145): > 100 µM (inactive) | GI50 (T47D): > 100 µM (inactive) | GI50 (SN12C): > 100 µM (inactive) | GI50 (HOP-62): > 100 µM (inactive) | GI50 (IGROV-1): > 100 µM (inactive) | GI50 (SK-MEL-2): > 100 µM (inactive) | GI50 (OVCAR-8): > 100 µM (inactive) | GI50 (SF-539): > 100 µM (inactive) | GI50 (SNB-75): > 100 µM (inactive) | GI50 (RXF 393): > 100 µM (inactive) | GI50 (OVCAR-3): > 100 µM (inactive) | GI50 (U-251): > 100 µM (inactive) | GI50 (UACC-62): > 100 µM (inactive) | GI50 (NCI-H460): > 100 µM (inactive) | GI50 (HOP-92): > 100 µM (inactive) | GI50 (MDA-MB-231): > 100 µM (inactive) | GI50 (MOLT-4): > 100 µM (inactive) | GI50 (TK-10): > 100 µM (inactive) | GI50 (COLO 205): > 100 µM (inactive) | GI50 (HT-29): > 100 µM (inactive) | GI50 (NCI-H226): > 100 µM (inactive) | GI50 (LOX IMVI): > 100 µM (inactive) | GI50 (MDA-N): > 100 µM (inactive) | GI50 (ACHN): > 100 µM (inactive) | GI50 (RPMI-8226): > 100 µM (inactive) | GI50 (Malme-3M): > 100 µM (inactive) | GI50 (SK-MEL-5): > 100 µM (inactive) | GI50 (BT-549): > 100 µM (inactive) | GI50 (SW-620): > 100 µM (inactive) | GI50 (OVCAR-5): > 100 µM (inactive) | GI50 (M14): > 100 µM (inactive) | GI50 (KM12): > 100 µM (inactive) | GI50 (SF-295): > 100 µM (inactive) | GI50 (UACC-257): > 100 µM (inactive) | GI50 (EKVX): > 100 µM (inactive) | GI50 (HL-60): 59.7 µM (inactive) | GI50 (SK-OV-3): > 100 µM (inactive) | GI50 (SNB-19): > 100 µM (inactive) | GI50 (SK-MEL-28): > 100 µM (inactive) | GI50 (MDA-MB-435): > 100 µM (inactive) | GI50 (PC-3): > 100 µM (inactive) | GI50 (NCI/ADR-RES): > 100 µM (inactive) | GI50 (Hs-578T): > 100 µM (inactive) | GI50 (K562): > 100 µM (inactive) | GI50 (HCC 2998): > 100 µM (inactive)
